This assay concerns the target glutathione S-transferase (Schistosoma japonicum GST tag binding GSH beads). As to the kind of experiment: GST–glutathione bead interaction interference profiling – biochemical, multiplex beads, flow cytometry, profiling panel (AID 1769).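 Note: target is a GST and green fluorescent protein fusion captured on glutathione beads.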 To be noted: flow cytometry fluorescence. (Flow cytometry measures light scatter and fluorescence of single cells or particles in a stream.)

Each structure is given as a SMILES string.

For the molecule `Cn1c(O)c(C2=c3ccccc3=NC2=O)[nH]c1=S`, the EC50 was 13.4 µM. The result for `Cn1c(SCCOc2ccccc2F)nc2ccccc2c1=O` reads 4.72 µM.

With `O=S1(=O)N=C(N(CCO)/N=C/c2ccccc2)c2ccccc21`, the EC50 was 51.9 µM. Then `O=c1[nH]c(N/N=C/c2ccc(O)cc2)nc2ccccc12`, with 7.68 µM; and `NC1=NC(=O)/C(=C/c2cn(CCC(=O)O)nc2-c2ccc(Cl)cc2)S1`, with 29.2 µM; and `CC(=O)N1C(=O)/C(=C2\SC(=S)N(NC(=O)c3ccc(O)cc3)C2=O)c2ccccc21`, with 4.13 µM. For the molecule `NC(=S)N=Nc1c(O)[nH]c2c(Br)cc(Br)cc12`, the EC50 is 69.1 µM. Consider `NS(=O)(=O)c1ccc(CCN2C(=O)/C(=C\c3ccc(Cl)cc3)SC2=S)cc1`, for which the EC50 is 6.03 µM.

For the molecule `Nc1c(S(=O)(=O)c2cccs2)c2nc3ccccc3nc2n1/N=C/c1cccc(O)c1`, the EC50 is 0.355 µM. The result for `Cc1nc(N/N=C/c2ccc(O)cc2)c2cnn(-c3ccccc3)c2n1` reads 3.58 µM. The result for `O=c1c2ccc([N+](=O)[O-])cc2ncn1Cc1ccccc1C(F)(F)F` reads 7.62 µM; that for `COc1cc(NC(=O)c2cccs2)c(OC)cc1NC(=O)CCC(=O)Nc1ccc2ncccc2c1`, 0.481 µM; that for `COc1cc2[nH]c(=S)nc(NC3CCCCCC3)c2cc1OC`, 1.32 µM. The result for `O=c1[nH]c(=O)c2nnc(N/N=C\c3ccc(O)cc3)nc2[nH]1` reads 3.79 µM; that for `Oc1ccc(C2=Nn3c(nnc3-c3ccco3)SC2)cc1O`, 1.29 µM. With `O=C(Nc1cc(S(=O)(=O)Nc2ccccc2Cl)ccc1O)c1sc2cc(Cl)ccc2c1Cl`, the EC50 is 3.66 µM. Consider `O=C(O)CC/C(=C\c1ccc(N2CCCC2)c([N+](=O)[O-])c1)c1nc2ccccc2s1`, for which the EC50 was 37 µM. For `COc1ccc(C(=O)Nc2nc3ccccc3[nH]2)cc1S(=O)(=O)N1CCOCC1`, the half-maximal effective concentration (EC50) was 32.7 µM. The result for `Cc1ccc(O)c(N=Cc2cc(Cc3ccccc3)cc([N+](=O)[O-])c2O)c1` reads 8.29 µM; that for `COc1ccc(/C=N/NC(=O)Nc2cccc3nsnc23)cc1OC`, 0.682 µM. Then `CCN1/C(=C/C=C/c2oc3ccc4ccccc4c3[n+]2CC)Oc2ccc3ccccc3c21`, with 0.223 µM. Take `COc1cccc(C2CC(c3ccccc3)Nc3ncnn32)c1` (configuration not stated): the EC50 was 6.49 µM. Turning to `COc1ccc(NC(=O)c2cc3nc(-c4ccccc4)cc(C)n3n2)cc1OC`, the EC50 is 2.85 µM. The result for `CCn1cc(C(=O)O)c(=O)c2cc(F)c(N/N=C/c3ccccc3[N+](=O)[O-])cc21` reads 2.67 µM. The result for `COc1ccc(N=C2S/C(=C\c3ccc(N4CCOCC4)o3)C(=O)N2CCc2c[nH]c3ccccc23)cc1` reads 0.0269 µM; that for `Cc1ccc2c(c1)c1nnc(SCC(=O)N3CCCc4ccccc43)nc1n2CC(=O)O`, 69.6 µM; that for `COc1cc(/C=N/Nc2ncnc3sc4c(c23)CCC4)ccc1O`, 14.4 µM.

On to `Cc1cc(/C=c2\sc3nc4ccccc4n3c2=O)c(C)n1-c1ccc(C(=O)O)cc1`, for which the EC50 was 47.5 µM. Regarding `COc1ccc(/C=C(/C#N)C(=O)Nc2ccc(O)cc2)cc1C(=O)O`, the EC50 is 16.4 µM.

On to `CC(C)(C)NC(=O)CCN(/N=C/c1ccc([N+](=O)[O-])o1)C1=NS(=O)(=O)c2ccccc21`, for which the EC50 is 3.39 µM. Turning to `CCC(C)N1C(=O)/C(=C/c2c(NCCCOC(C)C)nc3c(C)cccn3c2=O)SC1=S` (configuration not stated), the EC50 is 0.201 µM. The result for `COc1ccccc1Nc1nc(-c2c(C)nc3ncccn23)cs1` reads 12.2 µM; that for `O=c1c2ccccc2nc2c3ccccc3c(NCCO)nn12`, 3.55 µM; that for `O=C(Oc1c(Br)cc(C(=S)N2CCOCC2)cc1Br)c1ccc(Cl)cc1`, 2.97 µM. The result for `Cc1cc2[nH]c3c(c[n+](C)c4ccccc34)c2cc1C` reads 9.45 µM; that for `CN(/N=C/c1ccco1)C1=NS(=O)(=O)c2ccccc21`, 2.54 µM. Regarding `COc1ccc(OC)c(S(=O)(=O)Nc2ccc(O)c(Sc3ncn[nH]3)c2)c1`, the EC50 was 4.38 µM.

Take `CCN(c1ccc(N=Cc2c(O)n(Cc3ccc(OC)cc3)c(=O)c3ccccc23)cc1)C(C)C`: the EC50 was 0.249 µM. Then `CCCc1nc2oc3c(=O)[nH]cnc3c2c2c1CCCC2`, with 2.05 µM. For the molecule `O=C(CSc1ccc2nnc(-c3ccncc3)n2n1)Nc1nccs1`, the EC50 is 35.1 µM. Consider `N=c1oc2ccc3ccccc3c2cc1-c1nc(-c2ccccc2)cs1`, for which the EC50 is 1.4 µM. The result for `C/C(=N\Nc1ccc(S(N)(=O)=O)cc1[N+](=O)[O-])c1ccc2c(c1)OCO2` reads 1.4 µM; that for `CCOC(=O)c1cc2c(N)c(C(=O)c3ccc(Br)cc3)sc2[nH]c1=O`, 0.574 µM.

As to `N#CCc1c(C#N)c(N)nc(N2CCN(C=O)CC2)c1C#N`, the EC50 was 15.7 µM.

Regarding `O=[N+]([O-])c1cc(-c2ncccn2)c([N+](=O)[O-])s1`, the EC50 is 7.57 µM.

For the molecule `CCC1CCCCN1S(=O)(=O)c1ccc(NC(=O)CSc2ncccc2C(=O)O)cc1` (configuration not stated), the EC50 was 10.7 µM. Turning to `COc1ccc(-c2cc(=O)c(C(=O)c3ccc(C)cc3)n[nH]2)cc1`, the EC50 was 4.09 µM. Consider `COc1cccc(N=Nc2c(N)[nH]n3c(=O)c4c(nc23)CCCC4)c1`, for which the EC50 is 1.22 µM. The result for `COc1cccc2c(SCC(=O)N/N=C/c3ccc(O)cc3O)cc(C)nc12` reads 45.4 µM; that for `Nc1nc2c(c(=O)[nH]1)C(c1cccc3ccccc13)C1=C(N2)c2ccccc2C1=O` (configuration not stated), 2.59 µM; that for `O=C(N/N=C(\c1ccccc1)c1ccccn1)c1cccc([N+](=O)[O-])c1`, 38.1 µM. As to `O=C(NCc1cccs1)c1cccn2c(=O)c3sccc3nc12`, the EC50 was 0.664 µM. Consider `Oc1ccc(/C=N/NC(=S)N/N=C/c2ccc(O)cc2)cc1`, for which the EC50 was 13.4 µM.

Consider `CCNC(=S)N=Nc1c(O)[nH]c2ccc([N+](=O)[O-])cc12`, for which the EC50 was 1.93 µM. The result for `COCCN1C(=O)/C(=C/c2ccc(N3CCCC3)cc2C)SC1=S` reads 1.69 µM.

Consider `O=C(N/N=C/c1ccco1)c1ccc(C(=O)N/N=C/c2ccco2)o1`, for which the EC50 was 19.4 µM.

As to `COc1cc2[nH]c(=S)nc(NCCc3ccc(C)cc3)c2cc1OC`, the EC50 was 0.334 µM. The result for `O=C(O)c1cc(C(=O)O)cc(-c2ccc(/C=c3/sc4nc5ccccc5n4c3=O)o2)c1` reads 11.9 µM; that for `O=C1/C(=C/c2ccc(N3CCOCC3)o2)SC(=Nc2ccccc2)N1CCc1c[nH]c2ccccc12`, 0.0697 µM.

For the molecule `CCOc1cc(/C=N/NC(=O)c2cc(-c3cccnc3)nc3ccccc23)ccc1O`, the EC50 was 8.65 µM. For `O=c1c2ccccc2nc2c3ccccc3c(NCc3ccccn3)nn12`, the EC50 was 3.76 µM. Then `Cc1cc(=O)[nH]c2c(N=Nc3ccc(O)cc3)c(N)nn12`, with 1.4 µM; and `Fc1cccc(Nc2ncnc3[nH]ncc23)c1`, with 45.1 µM. The result for `COc1ccccc1CNC(=O)c1c(N)n(CCCN2CCOCC2)c2nc3ccccc3nc12` reads 4.43 µM. In the case of `CC(C)c1cc(NCc2ccccn2)n2c(nc3ccccc32)c1C#N`, the EC50 was 2.82 µM. For `NC(=S)N=Nc1c(O)[nH]c2cc(F)c(F)cc12`, the EC50 was 15.6 µM. Take `O=C1Nc2ccc(Br)cc2C12NNc1ccccc1O2` (configuration not stated): the EC50 is 2.38 µM. With `O=C(CNC(=O)Cc1ccccc1)N=Nc1c(O)n(Cc2ccc3c(c2)OCO3)c2ccccc12`, the EC50 is 12 µM. Then `CC(=O)Oc1ccc2c(c1)Oc1cc(OC(C)=O)ccc1C21OC(=O)c2ccccc21`, with 1.51 µM; and `Cc1nnc2ccc(-c3cccc(NC(=O)c4ccco4)c3)nn12`, with 7.84 µM; and `O=c1c2ccccc2nc2ccc(NCc3ccco3)nn12`, with 50.8 µM. `O=C(CSc1ccc2nnc(-c3cccc(F)c3)n2n1)N1CCCc2ccccc21`: the EC50 was 0.16 µM.

As to `Nc1c(C(=O)C2CC2)sc2nc(-c3cccs3)cc(C(F)(F)F)c12`, the EC50 was 19.3 µM.

As for `COc1cc2ccccc2cc1C(=O)NC(=S)Nc1cccc(C(=O)O)c1`, the EC50 is 9.3 µM. Consider `N#Cc1c(Nc2ccccc2)c(/C=N/N=C/c2ccccc2)c[nH]c1=O`, for which the EC50 is 4.1 µM.

In the case of `COc1ccc(Nc2nc(-c3c(C)nc4ncccn34)cs2)cc1`, the EC50 is 8.39 µM. Then `CCN1/C(=C/c2ccc3cc(C)ccc3[n+]2C)Sc2ccc3sccc3c21`, with 21 µM; and `CCN(CC)c1ccc(/C=C(\C#N)C(=O)c2ccc(Br)cc2)cc1`, with 11.1 µM. Regarding `CCCCNc1nc(=S)[nH]c2cc(OC)c(OC)cc12`, the EC50 is 10.9 µM. Then `COc1ccc(C(=O)N/N=c2\oc3ccccc3cc2C(N)=O)cc1`, with 4.62 µM; and `O=C(O)c1cccc(-n2cccc2/C=C2/NC(=O)N(c3ccc(Cl)cc3)C2=O)c1`, with 2.25 µM; and `CCN(CC)c1ccc(/C=C/C(=O)c2ccc(Br)cc2)cc1`, with 11.2 µM. Then `O=S1(=O)N=C(N(CCO)/N=C/c2ccncc2)c2ccccc21`, with 36.1 µM; and `O=C(C[n+]1cccc2ccccc21)c1ccc(NC(=O)c2ccccc2)cc1`, with 10.2 µM. As for `CCCCn1c(O)c(/C=C/C=C/C=Nc2ccccc2)sc1=S`, the EC50 was 0.576 µM. Consider `COc1ccc(OC)c(Nc2nc(-c3sc(N)nc3C)cs2)c1`, for which the EC50 was 26.9 µM. Then `O=c1c2ccccc2nc2c3ccccc3c(Cl)nn12`, with 2.04 µM.

For the molecule `COC(=O)c1cc(NC(=O)c2cccc(Cl)c2)c(=O)oc1/C=C/Nc1cc(C)cc(C)c1`, the EC50 is 0.567 µM. With `O=C(CSc1ccc2nnc(-c3ccccn3)n2n1)Nc1nccs1`, the EC50 was 13 µM. Then `Oc1ccc2ccccc2c1/C=N/Nc1nnc(-c2ncc[nH]2)c2ccccc12`, with 1.96 µM. The result for `COc1ccc2nc(C)cc(SCC(=O)N/N=C/c3ccc(O)c(O)c3)c2c1` reads 15.7 µM; that for `COc1cc(OC)c(-c2c3cc(O)c(=O)cc-3oc3cc(O)c(O)cc23)cc1OC`, 0.258 µM; that for `COc1cc(/C=N/NC(=O)CN(Cc2ccccc2)S(=O)(=O)c2ccc3c(c2)OCCO3)ccc1O`, 20.3 µM. Consider `CCOc1ccccc1C(=O)Nc1cccc(-c2ccc3nncn3n2)c1`, for which the EC50 was 1.96 µM. Regarding `COc1cc(/C=N/Nc2nc(C)nc3c2cnn3-c2ccccc2)ccc1O`, the EC50 is 0.638 µM.

Turning to `CN1CCN(S(=O)(=O)c2cccc(C(=O)Nc3sc4c(c3C(N)=O)CCCC4)c2)CC1`, the 50% effective concentration (EC50) is 19.8 µM.

For the molecule `CCOc1ccc2c(c1)c(N=NC(=N)N)c(O)n2C`, the EC50 was 25.6 µM.

By EC50 is commonly meant the concentration at which the effect is half-maximal.

For the origin of these results see PubChem BioAssay AID1769 (NMMLSC, 2009).
